The source of these data is US20030017965A1, “Methods for treating certain diseases using naaladase inhibitors” (priority 1998, published 2003).

The IC50 is the concentration needed to halve the response being measured.

For data set [1], the target named is T1, Myeloperoxidase (MPO) isolated from human polymorphonuclear leukocytes (Homo sapiens, UniProt P05164).
T1 construct: Myeloperoxidase (MPO) isolated from human polymorphonuclear leukocytes; purchased Calbiochem 475911; host or cells: human polymorphonuclear leukocytes (natural source)
Particulars: guaiacol substrate, reference data; cited from earlier work.

In data set [2] the test system is ischemic cultures. Description: Neuroprotection in ischemic cell culture model of stroke with neutralizing antibodies. Format: cell-based. Particulars: for neuroprotective effect in presence of FGF antibody: FGF neutralizing antibody added; for neuroprotective effect in presence of TGF-β neutralizing antibodies: TGF-β neutralizing antibodies added. As for the experimental part: (§1) The compounds of the invention were used to produce a neuroprotective effect in both in vitro and in vivo cell culture models of stroke.
TGF-β neutralizing antibodies were then added to determine if the neuroprotective effect would be blocked. The neuroprotective effect of 2-(phosphonomethyl)-pentanedioic acid was blocked by TGF-βs neutralizing bodies in this cell culture model. However, when other growth factor antibodies, such as FGF antibody, were added, the neuroprotective effect of 2-(phosphonomethyl)-pentanedioic acid was not reversed in culture.

In data set [3] the test system is mice. Description: In vivo toxicity study in mice. Particulars: for Survival Rate After 5 days (%): injected. The source says:
The in vivo toxicological effect of NAALADase inhibition has been examined in mice. […] Representative disclosure may be found in U.S. Pat. Nos. 5,672,592, 5,795,877, 5,863,536 and 5,880,112, and allowed U.S. patent applications Ser. Nos. 08/825,997, 08/833,628, 08/835,572 and 08/842,360, for which the issue fees have been paid, the entire contents of which patents and applications are herein incorporated by reference.
The mice were observed two times per day for 5 consecutive days.

The subject of data set [4] is middle cerebral artery occlusion (MCAO) in rats. Description: Neuroprotection following middle cerebral artery occlusion (MCAO) in rats. The data set is classed as in vivo. From the text: The effect of TGF-β neutralizing antibodies on the neuroprotection afforded by 2-(phosphonomethyl)-pentanedioic acid following middle cerebral artery occlusion (MCAO) in rats was also studied to give a more relevant in vivo model of stroke.
Thus, it was appreciated that the regulation of TGF-βs may have implications, not only in its utility in stroke, but also in other neurological and psychiatric diseases. In addition, this mechanism may have implications in myelination, prostate cancer, inflammation, diabetes, and angiogenesis.

Data set [5] has as its system TGF-β1. Description: TGF-β1 concentration in ischemic cell cultures. Format: cell-based. Particulars: added to ischemic cultures (20-minute ischemia).
Source text: as §1

For data set [6], the system named is TGF-β1. As to the kind of experiment: TGF-β1 levels by microdialysis in MCAO rats. The data set is classed as in vivo. Particulars: FIG. 6.
Data set [7] deals with TGF-β2. Description: TGF-β2 concentration in ischemic cell cultures. Format: cell-based. Particulars: added to ischemic cultures (20-minute ischemia).
Source text: as §1

[8] abbreviates: listed as 2-(phosphonomethyl)-pentanedioic acid.

T1 sequence (P05164 279-745 limits assumed): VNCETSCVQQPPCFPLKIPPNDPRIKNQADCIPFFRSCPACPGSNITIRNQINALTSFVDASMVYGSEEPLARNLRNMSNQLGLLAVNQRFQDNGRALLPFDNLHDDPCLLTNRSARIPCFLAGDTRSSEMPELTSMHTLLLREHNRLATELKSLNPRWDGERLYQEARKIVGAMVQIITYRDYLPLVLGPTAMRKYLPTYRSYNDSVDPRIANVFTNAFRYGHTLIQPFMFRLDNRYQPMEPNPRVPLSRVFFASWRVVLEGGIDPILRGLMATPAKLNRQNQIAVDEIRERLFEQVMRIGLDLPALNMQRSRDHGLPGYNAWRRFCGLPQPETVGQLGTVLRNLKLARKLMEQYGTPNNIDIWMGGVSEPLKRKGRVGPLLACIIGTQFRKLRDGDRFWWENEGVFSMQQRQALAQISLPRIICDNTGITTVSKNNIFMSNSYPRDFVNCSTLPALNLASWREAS
T1 sequence (P05164 165-273 limits assumed): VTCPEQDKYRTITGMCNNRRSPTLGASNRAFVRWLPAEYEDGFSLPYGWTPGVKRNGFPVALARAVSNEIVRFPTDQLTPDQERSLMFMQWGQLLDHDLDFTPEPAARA

For `CC(Cc1ccc(O)c(O)c1)C(C)Cc1ccc(O)c(O)c1` (stereo not drawn) [NDGA (Nordihydroguaretic Acid), Nordihydroguaretic Acid], the IC50 in data set [1] was 1000 nM.

Turning to `O=C(O)CCC(CP(=O)(O)O)C(=O)O` (stereo not drawn) [Compound 3, 2-(phosphonomethyl)-pentanedioic acid], the figures for the “neuroprotective effect in presence of FGF antibody” value in data set [2] (setting [8]) and in data set [2] (listed as compound 3) were “not reversed” and “non-reversal”, respectively. Also, the results for the “neuroprotective effect in presence of TGF-β neutralizing antibodies” value in data set [2] (setting [8]) and in data set [2] (listed as compound 3) were “blocked” and “reversal”, respectively. In addition, the “Survival Rate After 5 days (%)” value in data set [3] (dose 1 mg/kg), in data set [3] (dose 5 mg/kg), in data set [3] (dose 10 mg/kg), in data set [3] (dose 30 mg/kg), in data set [3] (dose 100 mg/kg) and in data set [3] (dose 300 mg/kg) was 100% throughout. Besides, the “Survival Rate After 5 days (%)” value in data set [3] (dose 500 mg/kg) stood at 66.7%. In addition, the “toxicological effect in vivo” value in data set [3] (observed for 5 days) is given as “non-toxic”. The neuroprotection result in data set [4] (MCAO rats) is reported as “provided neuroprotection”. Further, the “neuroprotective effect after TGF-β neutralizing antibodies” value in data set [4] (MCAO rats pre-treated with TGF-β neutralizing antibodies, FIG. 5) is listed as “significantly attenuated”. Further, the “level of TGF-β1” value in data set [5] was “increased significantly”. For the same compound, the “TGF-β1 during occlusion and reperfusion” value in data set [6] is recorded as “significant rise”. Besides, in data set [7], the “level of TGF-β2” value is on record as “increased significantly”.
